# Measured values: ChEMBL document CHEMBL1148501, “Synthesis of pyrazoles and isoxazoles as potent alpha(v)beta3 receptor antagonists” (Bioorg Med Chem Lett, 2006)
# Experiments:
# in vivo [1] = details: rat, po
# in vivo [2] = details: rat
smiles,measurement,setting,value
Cn1nc(CC(CC(=O)O)c2ccc3c(c2)OCO3)cc1OCCc1ccc2c(n1)NCCC2 (configuration not stated),bioavailability,in vivo [1],95%
same,half-life,in vivo [2],4.9 h
